Assay results from patent US8946291B2, “Compositions and methods for treating pigmentary conditions and melanoma” (The United States of America, as represented by the …, priority 2008, dated 2015).

How the values were obtained:
SOX9 [1] = experiment: SOX9 protein expression in normal human melanocytes (metabolic labeling, immunoblotting, immunocytochemistry); type: cell-based; settings: for SOX9 regulation in human melanocytes: statement in the discussion
Experimental: Cultures in 100 mm dishes were solubilized in […] mammalian protein extraction reagent (Pierce Biotechnology, Rockford, Ill., USA) and Protease Inhibitor cocktail (Roche, Mannheim, Germany). Protein concentrations of extracts were measured using the BCA protein assay kit (Pierce, Rockford, Ill., USA). Cell extracts (20 μg) were separated on 8-16% gradient SDS polyacrylamide gels (Invitrogen). After electrophoresis, proteins were transferred electrophoretically from the gels to Invitrolon PVDF transfer membranes (Invitrogen). The filters were incubated with antibodies to SOX9 (rabbit 1:500; Abeam, Cambridge, UK), SOX10 (goat 1:200; Santa Cruz, Santa Cruz, Calif., USA), DCT (1:2,000; (22)), Tyrosinase (rabbit 1:10,000; (22)), or GAPDH (rabbit 1:10,000, Santa Cruz) for 1 h at 23° C. to overnight at 4° C. (depending on the antibody) and were then incubated with horseradish peroxidase-linked anti-rabbit, anti-mouse or anti-goat whole antibodies (at 1:1,0000, GE Healthcare, Buckinghamshire, UK) at room temperature for 1 h. Antigens were detected using ECL-plus Western Blotting Detection System (GE Healthcare). Blots were quantitated using Scion Image Software (Scion Corp., Frederick, Md., USA). Each experiment was performed at least in triplicate.
Melanocyte cultures in two well Lab-Tek chamber slides (Nalge Nune International Corp., Naperville, Ill., USA) were processed for indirect fluorescence to detect the expression of proteins using primary antibodies to SOX9 (rabbit 1:50, Abcam), MITF-ab3 (mouse 1:100 dilution; NeoMarkers, Fremont, Calif., USA), DCT (rabbit 1:7,500; (22)) and Tyrosinase (rabbit 1:700; (22)). Bound antibodies were visualized with appropriate secondary antibodies, Alexa Fluor® 488 goat anti-rabbit IgG (H+L) (Molecular Probes, Inc., Eugene, Oreg., USA), Alexa Fluor® 594 mouse anti-rabbit IgG (H+L) (Molecular Probes), Alexa Fluor® 488 goat anti-mouse IgG (H+L) (Molecular Probes) or Alexa Fluor® 594 goat anti-mouse IgG (H+L) (Molecular Probes) at 37° C. for 30 min at 1:500 dilution with 5% goat serum. DAPI (Vector, Burlingame, Calif.; USA) was used as a counter-stain. The green fluorescence produced by Alexa 488®, red produced by Alexa 594®, and blue by DAPI was observed and captured using a Leica DMR B/D MLD fluorescence microscope (Leica, Wetzlar, Germany) and a Dage-MTI 3CCD 3-chip color video camera (Dage-MTI, Michigan City, Ind., USA).
Radioactive metabolic labeling and immunoprecipitation was performed as described previously (58). Where indicated, cells were irradiated with 21 mJ/cm^2 UVB and/or chemical agents were added from the “pulse” period to the “chase” period. Cell extracts were incubated with normal rabbit serum (Vector, Burlingame, Calif., USA) and were then incubated with protein G beads (GE Healthcare). The supernatants were incubated with SOX9 (Abcam) or GAPDH (Santa-Cruz) antibodies. The immune-complexes were separated by incubation with beads and were further washed with immunoprecipitate lysis buffer. The pellets were eluted, electrophoresed and visualized by autoradiography.

melanoma cells = settings: literature (14-17); cited from earlier work
SOX9 [2] = experiment: SOX9 expression in A375 cells (S35 labeling and immunoprecipitation / immunoblotting); type: cell-based, human; settings: A375 cells treated with PGD2 for 72 h
Experimental: (§1) SOX9 has been extensively studied in chondrocytes due to its key role for collagen II synthesis. […] First, S35 labeling was performed on A375 cells treated or not treated with PGD2 for 72 h. Proteins were then extracted and immunoprecipitated with SOX9 and PRAME antibodies (GAPDH was used as a control). SOX9 was increased after treatment with PGD2 whereas PRAME was decreased (FIG. 3B). […] A further proliferation assay with or without RA treatment, using PGD2 instead of the transfection with SOX9, was performed.
(§2) Cells were solubilized in M-PER® mammalian protein extraction reagent (Pierce Biotechnology, Rockford, Ill., USA) containing Protease Inhibitor cocktail (Roche, Mannheim, Germany). Protein concentrations of extracts were measured using the BCA protein assay kit (Pierce, Rockford, Ill., USA). Cell extracts (30 μg) were separated on SDS polyacrylamide gels (Invitrogen). After electrophoresis, proteins were transferred electrophoretically from the gels to Invitrolon PVDF transfer membranes (Invitrogen). […] Antigens were detected using ECL-plus Western Blotting Detection System (GE Healthcare). […]

PRAME = PRAME expression in melanoma cells (immunoprecipitation / immunoblotting); type: cell-based, human; settings: A375 cells treated with PGD2 for 72 h
Experimental: as §1, §2

A375 cells = experiment: Proliferation assay (crystal violet) in A375 melanoma cells; type: cell-based, human
Experimental: B16/F10 melanoma cells, SKMel 28 and A375 cells were obtained from the ATCC (Manassas, Va., USA). Mel Juso cells are a generous gift from Dr. Hornyak at the National Cancer Institute. A375, SK Mel 28 and B16 cells were grown at 37° C. under 5% CO2 in DMEM supplemented with 7% Fetal Bovine Serum (FBS) and penicillin (100 U/ml) and streptomycin (50 ug/ml). Mel Juso cells were grown at 37° C. under 5% CO2 in RPMI medium supplemented with 10% FBS and penicillin (100 U/ml) and streptomycin (50 ug/ml). Retinoic acid (10^−7M) and Prostaglandin D2 (0.5 ug/ml) were purchased from Sigma-Aldrich (St-Louis, Mo., USA).
The cells were transfected with a pBabe vector to give them a resistance to puromycin. At the same time, they were transfected with SOX9 cDNA or empty vector as control. Depending on the experiment, cells were also transfected the day after with SiRNA p21 or SiRNA Mock. After 10 to 15 d, the clones were fixed and stained with crystal violet. Proliferation was measured according to the optical density of the color.

SOX9 [3] = settings: by promoting phosphorylation and nuclear translocation, literature (13); cited from earlier work
DCT promoter = experiment: Luciferase assay of DCT promoter in HeLa cells; type: cell-based, human; settings: forskolin (data not shown)
Experimental: (§3) B16 melanoma cells or HeLa cells were seeded in 24-well dishes and were transfected with 0.3 μg of the luciferase reporter plasmid and 0.05 μg of pCMVβGal (Promega, Madison, Wis., USA) to control the variability of transfection efficiency. In some experiments, SOX9 was over-expressed using 0.1 μg of the pcDNA3 encoding SOX9, or was silenced with SOX9 siRNA (100 nM). Empty pcDNA3 or siRNA scrambles were used as controls depending on the experiments. All transfections were made with Lipofectamine (Invitrogen) according to the instructions of the manufacturer. Thirty-six h later, cells were washed with a saline phosphate buffer and lysed with reporter lysis buffer (Promega). Soluble extracts were harvested and assayed for luciferase and β-galactosidase activities. All transfections were repeated at least 3 times using different plasmid preparations and gave similar results. The pMITF wild-type and mutants, pDCT, pTYR, and pCRE constructs used were described previously (26, 43, 59).

TYR promoter = experiment: Luciferase assay of TYR promoter in HeLa cells; type: cell-based, human; settings: forskolin (data not shown)
Experimental: as §3

SOX9 [4] = experiment: SOX9 mRNA expression in normal human melanocytes by RT-PCR; type: cell-based; settings: n-MP NHM, 4 h after ASP treatment
Text: Total RNA was reverse-transcribed using SuperScript III (Invitrogen). PCR reactions consisted of 25 cycles for β-actin and 35 cycles for SOX9 using Taq DNA polymerase (Invitrogen). PCR products for β-actin and SOX9 were 838 bp, and 288 bp, respectively, and were electrophoresed in parallel with DNA molecular mass markers (Invitrogen). Oligonucleotide primers used for PCR were based on mRNA sequences as follows: human SOX9 sense primer 5′-[…]-3′ (SEQ ID NO:5); human SOX9 antisense primer 5′-[…]-3′ (SEQ ID NO:6), β-actin sense primer 5′-[…]-3′ (SEQ ID NO:7); β-actin antisense primer 5′-[…]-3′ (SEQ ID NO:8). Each experiment was repeated at least in triplicate independently.

[5] = tested on: mouse melanocytes, melanoma cells, NHM; settings: literature (38-40); cited from earlier work
[6] = NHM, 21 mJ/cm^2 UVB, pretreatment with H89

In the case of O=S(=O)(NCCNC/C=C/c1ccc(Br)cc1)c1cccc2cnccc12 [H89], the “UVB-induced expression of SOX9” value (SOX9 [1]; [6]) is reported as “prevented the increased expression” and the “UVB-induced expression of SOX9 phosphorylated at serine 181” value (SOX9 [1]; [6]) is reported as “prevented the increased expression”.

For CCCCC[C@H](O)/C=C/[C@H]1C(=O)C[C@H](O)[C@@H]1C/C=C\CCCC(=O)O [PGD2, prostaglandin D2], the “proliferation of melanoma cells and other cancer cells” value (melanoma cells) is listed as “decrease the proliferation”, the SOX9 expression (SOX9 [2]) is listed as “increased” and the PRAME expression (PRAME) is listed as “decreased”. For the same molecule, the “proliferation of A375 cells” value (A375 cells; PGD2 0.5 μg/μl alone) was “inhibited” and the “SOX9 activity in chondrocytes” value (SOX9 [3]) was “increase SOX9 activity”.

For CC1=C(/C=C/C(C)=C/C=C/C(C)=C/C(=O)O)C(C)(C)CCC1 [RA, retinoic acid], the “proliferation of A375 cells” value (A375 cells; RA 10^−7 M alone) was “no effect”.

For C=C[C@@]1(C)CC(=O)[C@]2(O)[C@@]3(C)[C@@H](O)CCC(C)(C)[C@@H]3[C@H](O)[C@H](OC(C)=O)[C@@]2(C)O1 [forskolin], the DCT promoter activity (DCT promoter) was “no effect” and the TYR promoter activity (TYR promoter) was “no effect”.

For Δ2-PGJ2, the “proliferation of melanoma cells and other cancer cells” value (melanoma cells) is given as “decrease the proliferation”.

With αMSH the “SOX9 regulation in human melanocytes” value (SOX9 [1]) was “up-regulated”.

B1: ASP: recombinant mouse protein, antagonist of the melanocortin I receptor (MC1R) (protein, UniProt Q03288 23-131, looked up)
Agouti-signaling protein: HLALEETLGDDRSLRSNSSMNSLDFSSVSIVALNKKSKKISRKEAEKRKRSSKKKASMKKVARPPPPSPCVATRDSCKPPAPACCDPCASCQCRFFGSACTCRVLNPNC
In the case of B1, the “SOX9 expression (immunoblotting)” value (SOX9 [1]; n-MP NHM treated 48 h with ASP) is reported as “significantly decreased”, the “SOX9 regulation in human melanocytes” value (SOX9 [1]) is reported as “down-regulated” and the “expression level of SOX9 (RT-PCR)” value (SOX9 [4]) is reported as “decreased”. For the same molecule, the melanin formation [5] was “inhibits melanin formation”.
